The results in this text go back to PubChem BioAssay (NCI).

Molecules are shown by their SMILES.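 Five concentrations, 48 hours, 96-well plates. TGI marks complete inhibition of growth.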

What all share (assay): DTP human tumour cell line panel, 48 h
Assay [1] has as its system SW-620 colon.
In assay [2] the test system is U251 CNS.
In assay [3] the test system is NCI-H226 lung.
The test system of assay [4] is MDA-MB-435.
For assay [5], the system named is PC-3 prostate.
Assay [6] relates to IGROV1 ovarian.
Assay [7] deals with NCI-H460 lung.
The subject of assay [8] is EKVX NSCLC.
The test system of assay [9] is MDA-N.
Assay [10] concerns NCI-H522 lung.
The test system of assay [11] is A549 NSCLC.
The test system of assay [12] is OVCAR-8 ovarian.
The subject of assay [13] is SK-MEL-5 melanoma.
Assay [14] has as its system SF-295 CNS.
In assay [15] the test system is K-562 leukemia.
The test system of assay [16] is MCF7 breast.

Usually TGI stands for the concentration giving total growth inhibition. `CN(C)c1ccc(NN=C2SC(=Nc3ccccc3)C(=Nc3ccccc3)S2)cc1`: the TGI in assay [1], in [2], in assay [3], in [4], in assay [5] and in assay [6] was more than 100 µM each time. Besides, the TGI in assay [7], in assay [8], in assay [9], in assay [10], in [11] and in assay [12] was more than 100 µM throughout. Also, the TGI in assay [13] and in assay [14] was more than 100 µM throughout.

On to `C=C(Br)CNC(=O)Nc1ccc(Cl)c(Cl)c1`, for which the TGI in [1] was more than 100 µM; in assay [2] it was 66 µM; in assay [3] it was 67.4 µM; in assay [4], 53.2 µM; in assay [5], 48 µM; in assay [6], 36.6 µM. In addition, the TGI in assay [15] is 90.5 µM; in [7], more than 100 µM; in assay [8], 78.4 µM; in [9] it was more than 100 µM; in assay [10] it was 57.4 µM; in assay [11] it was 66 µM. Moreover, the TGI is 27.1 µM in assay [13] and 67.2 µM in [14].

As for `CCC(C=O)P1(=O)OC(C)(C)CN1C(C)(C)C` (stereo not given), the TGI in [1], in [2], in [3], in assay [16], in [4] and in [5] was more than 100 µM in each case. Besides, the TGI in [6], in assay [15], in assay [7], in [8], in assay [11] and in assay [12] was more than 100 µM each time. For the same compound, the TGI in assay [13] and in assay [14] was more than 100 µM each time.

On to `O=C(O)C12C3CCC(CC3)C1(C(=O)O)C1CCC2C1` (stereo not given), for which the concentration for total growth inhibition (TGI) in assay [1], in assay [2], in assay [3], in assay [16], in assay [4] and in assay [5] was more than 100 µM in each case. The TGI in assay [6], in assay [15], in [7], in [9], in assay [10] and in [11] was more than 100 µM throughout. Further, the TGI in assay [12], in [13] and in assay [14] was more than 100 µM in each case.

Consider `O=S1(=O)OCCOS(=O)(=O)C1(F)Br`, for which the TGI in [1], in assay [2], in assay [3], in [16], in assay [4] and in assay [5] was more than 100 µM throughout. In addition, the TGI in assay [15], in assay [8], in [9], in assay [10], in assay [11] and in assay [12] was more than 100 µM in each case. For the same compound, the TGI in assay [13] and in [14] was more than 100 µM throughout.

For `O=C1CCCN1C(=O)CS(=O)(=O)c1ccccc1`, the TGI in assay [1], in assay [2], in [3], in assay [4], in assay [5] and in assay [6] was more than 100 µM each time. The TGI in assay [15], in assay [7], in assay [9], in assay [10], in [11] and in [12] was more than 100 µM throughout. Moreover, the TGI in assay [13] and in assay [14] was more than 100 µM each time.

For the compound `C=CC[C@@H](N)C(=O)N(C)[C@@H](C)[C@@H](O)c1ccccc1`, the TGI in assay [1], in assay [2], in assay [3], in assay [4], in [5] and in [6] was more than 100 µM in each case. For the same compound, the TGI in assay [7] was more than 100 µM; in assay [9] it was more than 100 µM; in assay [10], 44.2 µM; in assay [11], more than 100 µM; in [12] it was more than 100 µM; in [13], more than 100 µM. In assay [14], the TGI is more than 100 µM.

On to `CO/C(=N\N=C\c1ccc(OC)c(OC)c1)c1ccncc1`, for which the TGI in assay [1], in [2], in [3], in assay [16], in assay [6] and in assay [15] was more than 10 µM throughout. The TGI in assay [7], in assay [8], in assay [9], in [11], in assay [12] and in assay [13] was more than 10 µM throughout.

Take `COc1cc2c(c(OC)c1)/C(=C/Sc1ccccc1)C(=O)N(C(C)(C)C)C2`: the TGI in [1] is more than 100 µM; in assay [2], 98.6 µM; in assay [3], more than 100 µM; in [16], 96.3 µM; in [4], 55.2 µM; in assay [5], more than 100 µM. The TGI in [6] was 82.8 µM; in assay [15], more than 100 µM; in [8] it was more than 100 µM; in assay [9], 73 µM; in assay [12], 79.6 µM; in assay [13] it was 36.2 µM. In [14], this compound gave a TGI of 75.5 µM.

Regarding `CC1(C)OC(=O)C(C#N)=C1/C=C/c1coc2ccc(Cl)cc2c1=O`, the TGI in assay [1] was more than 100 µM; in assay [2] it was more than 100 µM; in [3], 92.6 µM; in assay [6], more than 100 µM; in assay [15], more than 100 µM; in assay [7], 43.8 µM. Further, the TGI in assay [8] was more than 100 µM; in [10], more than 100 µM; in assay [11], more than 100 µM; in [12], 74.6 µM; in [13], 53.5 µM; in assay [14], more than 100 µM.
